Two molecules from patent EP1488698A1, “Compositions for descreasing intracellular inositol trisphosphate concentration and uses thereof” (priority 1995, dated 1997) can be followed below.

The subject of one data set is male F344 rats. In words: Behavioral analysis after ICV infusion (quisqualate excitotoxicity model). It is filed as in vivo. The settings on record: for effective dose (to prevent or reverse quisqualate effects): pilot testing, the higher doses appeared to be more reliable; for number of convulsions or spasms: pretreatment with Psychosine (125 nmoles) or Lysosphingomyelin (125 nmoles and 150 nmoles) ICV 30 minutes before quisqualate 225 nmoles, n = 6 per group, Fig. 8; for convulsant behavior, compound alone: psychosine at 125 nmoles, lysosphingomyelin at 125 nmoles and 150 nmoles, ICV without quisqualate; for behavioral and histological changes caused by quisqualate: rats pretreated with 125 nmoles of the lysosphingolipid; for BEHAVIORAL RESPONSE: 30 minutes prior to quisqualate. The procedure: (§1) The animals used in this experiment were male F344 rats (Charles River Breeding Laboratories). The animals were housed individually, exposed to a 12-hour light-dark cycle, and allowed free access to food and water. The animals weighed approximately 250 g at the beginning of each experiment and were weighed daily. In addition, the animals were habituated to handling before each experiment.
(§2) Before administering various compounds, the animals were anesthetized with sodium pentobarbital (50 mg/kg, i.p.) and positioned in a sterotaxic instrument. A 26 gauge cannula was inserted into the cerebral ventricle at the following co-ordinates: 1.0 mm posterior to bregma, 1.5 mm lateral to the midline, and 4.0 mm below the dorsal surface of the neocortex. Cannulas were capped and fixed in place with dental cement. One week after cannulation, 10 µl of each of the treatment drugs was infused, ICV (i.e. into the ventricals of the brain), via a micropump at a rate of 10 µl/min. For this procedure, the animals were lightly restrained and unanesthetized. Following administration of the compound, the infusion cannula remained in position for one minute, after which the permanent in situ cannula was capped.
(§3) The compounds administered were obtained from a commercial supplier (Sigma Chemical Co., St. Louis, MO) and dissolved in saline prior to injection. These compounds included quisqualate (injected at doses ranging from 100 nmole/10 µl to 1 µmole/10 µl), lysocerebroside, and lysophingomyelin (which were injected at doses of 25 nmoles/10 µl to 150 nmoles/10 µl).
Pilot studies identified several specific behavioral measures that could be used to indicate excessive activation of the metabotropic receptor (see Table 3). […] The experiments that follow were based on an analysis of these behaviors over a two hour period after administration of the compounds of the invention. Behavioral observation was carried out by two trained observers, who worked independently of one another and who were blind to the experimental groups. […] Frequency and duration means were computed by subtracting pre-infusion means from post-infusion means.
The experiment began one week after ICV cannulation. […] Following the baseline observation period, animals received the first of two ICV infusions (all infusions were of a 10 µl volume that was administered over a 1 minute period). For the first five groups listed above, this consisted of saline (10 µl/minute), for the following 3 groups the infusions were psychosine at 125 nmoles, lysosphingomyelin at 125 nmoles, or lysosphingomyelin at 150 nmoles, respectively. Thirty minutes later, all animals received the second infusion which, for the first five groups listed above, consisted of saline, quisqualate at 225 nmoles, psychosine at 125 nmoles, lysosphingomyelin at 125 nmoles, and lysosphingomyelin at 150 nmoles respectively. […] Following the second infusion animals were returned to their cages, and observed continuously over the subsequent 2 hours.

For the next data set, the system named is hippocampal neurons. In words: Histological analysis of brain (cresyl violet) seven days after ICV infusion. It is filed as in vivo, rats. As to conditions: pretreatment with psychosine 125 nmoles; quisqualate 225 nmoles ICV; Figs. 7A and 7B. The procedure:
as §1, §2, §3
Seven days after the compounds were administered, animals were sacrificed by transcardial perfusion with neutralized, buffered 10% formalin-saline. Their brains were removed, post-fixed overnight in 10% formalin-saline, and sectioned along the coronal plane (into 50 µm thick sections) on a freezing microtome. The sections were stained with cresyl violet to determine the extent of cellular destruction. […]
Given that high concentrations of metabotropic receptors are located in the hippocampus, and that the hippocampus is particularly vulnerable to the effects of a variety of insults including ischemia and hypoxia, this region was examined for evidence of neuronal degeneration due to glutamate excitoxicity.

The structures appear in SMILES notation. “And” between values parts separate entries of the source, which are not always exact repeats. Identical values can stand only once.

Consider `CCCCCCCCCCCCC/C=C/[C@@H](O)[C@@H](N)COP(=O)([O-])OCC[N+](C)(C)C` [lysosphingomyelin, sphingosyl phosphorylcholine], for which the “effective dose (to prevent or reverse quisqualate effects)” value in the data set on male F344 rats (ICV, rats) was 125 nmol and 150 nmol. In addition, the sedation entry in the data set with male F344 rats (Lysosphingomyelin 150 nmoles ICV, rats) was “mild sedation”. Besides, the “behavioral or neurotoxic effects of the compounds” value in the data set with male F344 rats (doses as high as 125 nmoles per animal, ICV, rats) is “no behavioral or neurotoxic effects were observed”. Further, in the data set with male F344 rats, the “number of convulsions or spasms” value is reported as “significantly (p<01) attenuated” and the “convulsant behavior, compound alone” value is given as “displayed no convulsant behavior”. The “duration of teeth chattering, akinesia and mobilization, compared with quisqualate alone” value in the data set with male F344 rats (quisqualate 225 nmoles and lysophingomyelin 150 nmoles ICV, Fig. 9) is “quisqualate alone spent significantly (p< .01) more time engaged in these behaviors”. For the same molecule, the “behavioral and histological changes caused by quisqualate” value in the data set on male F344 rats (ICV) is reported as “absent”.

Take `CCCCCCCCCCCCC/C=C/[C@@H](O)[C@@H](N)CO[C@@H]1O[C@H](CO)[C@H](O)[C@H](O)[C@H]1O` [psychosine]: the “effective dose (to prevent or reverse quisqualate effects)” value in the data set on male F344 rats (ICV, rats) turned out to be 125 nmol. In addition, the “BEHAVIORAL RESPONSE” value is “Moderate convulsions, teeth chattering, akinesia and hyperactivity” with male F344 rats (Psychosine 25 nmoles + Quisqualate 200 moles, ICV); “Moderate convulsions, teeth chattering, akinesia and hyperactivity” in the data set on male F344 rats (Psychosine 50 nmoles + Quisqualate 200 moles, ICV); “Almost complete attenuation of Quisqualate response, some teeth chattering post-injection” in the data set on male F344 rats (Psychosine 100 nmoles + Quisqualate 200 nmoles, ICV); “Moderate convulsions, teeth chattering, akinesia. Quisqualate markedly reduced compared to typical Quisqualate response at this dose” in the data set on male F344 rats (Psychosine 100 nmoles + Quisqualate 250 nmoles, ICV); “Complete attenuation of Quisqualate response” with male F344 rats (Psychosine 125 nmoles + Quisqualate 225 nmoles, ICV); “Almost complete attenuation of Quisqualate response” with male F344 rats (Psychosine 150 nmoles + Quisqualate 250 nmoles, ICV). Besides, the “BEHAVIORAL RESPONSE” value in the data set on male F344 rats (psychosine 125 moles + Quisqualate 200 moles, ICV) is given as “Complete attenuation of Quisqualate response”. In addition, the “number of convulsions or spasms” value with male F344 rats was “significantly (p<01) attenuated”. For the same molecule, the “convulsant behavior, compound alone” value in the data set with male F344 rats is on record as “displayed no convulsant behavior”. Further, the “behavioral and histological changes caused by quisqualate” value in the data set with male F344 rats (ICV) is “absent”. For the same molecule, the “neuronal loss (CA1 pyramidal neurons) caused by quisqualate” value in the data set with hippocampal neurons was “prevents the neuronal loss caused by quisqualate”.
